# Experimental data taken from patent publication US6583132B1, “Oxidant scavengers” (Duke University, priority 1993, dated 2003).
# B1: IFN: murine γ-interferon (protein, UniProt P01580 23-155, looked up)
# Interferon gamma: HGTVIESLESLNNYFNSSGIDVEEKSLFLDIWRNWQKDGDMKILQSQIISFYLRLFEVLKDNQAISNNISVIESHLITTFFSNSKAKKDAFMSIAKFEVNNPQVQRQAFNELIRVVHQLLPESSLRKRKRSRC
# Assays:
# rat cortical cells = assay: Neurotoxicity (LDH release) in cortical cell culture; assay type: cell-based; settings: for NMDA-induced LDH release: 1 mM NOS inhibitor
# Protocol: (§1) Tissue culture: Mixed neuronal and glial cultures were prepared from embryonic day-18 rat cerebral cortices (Sprague-Dawley, Zivic Miller). Briefly, the cerebral cortices were dissected and enzymatically dissociated by incubation in Ca^++-, Mg^++-free Hank's balanced salt solution (HBSS) supplemented with 10 mM HEPES and 0.25% trypsin for 20 min. at 37° C. The tissue was rinsed and dispersed into single cell suspension by gentle passage through a fire polished Pasteur pipette. The cell suspension was centrifuged and resuspended in Minimum Essential Media (MEM), containing Earle's salts supplemented with 3 g/L glucose, 5% horse serum and 5% fetal bovine serum (growth media). The cells were plated in poly-D-lysine-coated multi-well plates: 12-well plates for aconitase measurement, and 24 well plates for toxicity experiments. Cells were maintained at 37° C. in a humidified incubator with 5% CO2/95% air in growth media. Media was not replaced so as to reduce glial overgrowth and neuronal loss. Mature cells (14-17 days in vitro) were used for all experiments.
# (§2) Cell treatment: The growth media was replaced with MEM supplemented with 25 mM glucose (MEM-g). For both neurotoxicity studies and aconitase measurement, cells were incubated in the designated treatment for the indicated length of time at 37° C. Unless otherwise specified, antagonists or SOD-mimetics were added 15 min. prior to agonists. For measurement of neurotoxicity, cells were incubated with treatments for 18 hr at 37° C. in MEM-g. To access the ability of antagonists to inhibit acute NMDA toxicity or rescue cells from an ongoing NMDA insult, an alternate paradigm of NMDA treatment was used in addition to the one describe above. In this paradigm, growth media was replaced with HBSS^+ (Ca^++-, Mg^++-free Hank's Balanced Salt Solution supplemented with 2 mM CaCl2, 1 mM NaHCO3, 10 mM HEPES and 5 μM glycine), cells were treated with vehicle or 100 μM NMDA for 15 min. after which HBSS^+ was replaced with MEM-g and cells were returned to the incubator for 18 additional hrs. Antagonsists or SOD-mimetics were added to the cells 15 min. before NMDA exposure or 15, 30 or 60 min. following final media replacement. For determination of Ca^++-dependence, cells were incubated in HBSS^+ with no added Ca^++. When kainate (KA) was used as an agonist, 100 μM D-APV was routinely included to block secondary NMDA receptor activation. Catalase (100 U/ml) was always included when xanthine plus xanthine oxidase (X+XO) was used as a treatment to rule out the contribution of hydrogen peroxide.
# Neurotoxicity studies: Neurotoxicity was determined by the measurement of LDH released in the supernatant media as previously described (Patel et al, Toxicol. Appl. Pharmacol. 115:124 (1991) and Neurotoxicology 14:35 (1992)). LDH was measured by the method of Vassault, Lactate dehydrogenase. In: Methods of Enzymatic Analysis, Bergmeyer HU (ed), Verlag Chemie, Weinheim, pp. 118-126 (1983). Additionally, cell death was confirmed with ethidium-1 homodimer (EthD-1). Briefly, the cells were washed with HBSS, loaded with 20 μM EthD-1 for 30 min,. rinsed and viewed through fluorescence optics. The number of dead cells labeled with EthD-1 were counted in 4-6 randomly selected fields, the numbers averaged to give an estimate of cell death and the experiment was repeated 3 times.
# Cold-induced brain edema = assay type: in vivo, mice; settings: for Edema Index: mean ± standard error; for less edema formation compared to saline treated controls: pretreatment i.p.
# Protocol: Injury model: Young (6-7 week) mice (see Example I) were anesthetized with 60 mg/kg pentobarbital (Nembutal, Abbott Laboratories, Chicago, Ill.). An incision was then made in the scalp and a steel rod 20 cm long, 3 mm in diameter, equilibrated in liquid nitrogen with an 8 cm bath of liquid nitrogen 4 cm from the end of the rod, was placed on the skull over the right cerebral hemisphere for 30 seconds. The skin incision was then sutured.
# Two hours after the injury the mouse was given an additional dose of pentobarbital. The chest cavity was opened, the lungs were excised, and the mouse was then perfused with 20 ml saline through the left ventricle of the heart. The brain was then removed and the cerebellum was excised. The right (R) and left (L) cerebral hemispheres were separated and immediately weighed (wet weight, W). Each hemisphere was then dried at 70° C. for 2-3 days in a hot air oven until a constant weight was achieved (dry weight, D). An index of edema (I) was then calculated as shown in equation 13.
# I=(W/D R−W/DL)/(W/DL)×100 [13]
# Chemical treatments: Six groups of experiments were conducted to investigate the importance of extracellular superoxide, iron, and nitric oxide in cold-induced brain edema. In all groups, drugs were dissolved in saline and injected at 0.008 cc/g 15 minutes prior to cold injury. In Group 1, edema formation of EC-SOD transgenic mice was compared with that of nontransgenic littermates. Group 2 compared edema formation between wild-type (C57BL/6×C3H)F1 mice treated with saline and (C57BL/6×C3H)F1 mice treated with 0.33 mg/g deferoxamine (0.51 μmoles/g). Group 3 compared (C57BL/6×C3H)F1 mice treated with saline to (C57BL/6×C3H)F1 mice treated with 0.51 μmoles/g Fe^3÷− saturated deferoxamine. Group 4 consisted of (C57BL/6×C3H)F1 mice treated with saline and (C57BL/6×C3H)F1 mice treated with 0.02 mg/g N-ω-nitro-L-arginine methyl ester. Group 5 consisted of (C57BL/6×C3H)F1 mice treated with saline and (C75BL/6×C3H)F1 mice treated with 0.02 mg/g N-ω-nitro-L-arginine methyl ester plus 0.05 mg/g L-arginine. Group 6 compared edema formation between nontransgenic mice, EC-SOD transgenic mice treated with saline, and EC-SOD transgenic mice treated with 0.02 mg/g N-ω-nitro-L-arginine methyl ester.
# Iron saturated deferoxamine was made by dissolving equimolar amounts of deferoxamine and then ferric chloride in saline. Saturation of deferoxamine with ferric iron was determined spectrophotometrically be measuring the absorbance at 425 nm (ε=2500 M^−1 cm^−1 for Fe3+-deferoxamine) (Monzyk and Crumbliss, J. Amer. Chem. Soc. 104:4921 (1982)).
# aconitase = assay: Aconitase activity in cortical cell lysates; assay type: cell-based, rat; settings: for decrease in aconitase activity: PQ^++ 3 hrs, NMDA 1 hr, KA 6 hrs; for NMDA-induced aconitase inactivation: 1 mM NOS inhibitor
# Protocol: as §1, §2
# Aconitase measurement: For the measurement of aconitase, following treatment with agents, media was removed and cells lysed in ice-cold 50 mM, Tris/HCl, pH 7.4 containing 0.6 mM MnCl2, 1 mM L-cysteine, 1 mM citrate and 0.5% Triton-X 100. The aconitase activity of cell lysates was measured spectrophotometrically by monitoring the formation of cis-aconitate from isocitrate at 240 nm in 50 mM Tris/HCl, pH 7.4, containing 0.6 mM MnCl2 and 20 mM isocitrate at 25° C. (Kreb and Holzach, Biochem. J. 52:527 (1952); Gardner and Fridovich, J. Biol. Chem. 267:8757 (1992)). […] Aconitase activity in cortical cell lysates was inhibited by 0.1 mM potassium ferricyanide or by boiling of sample.
# [1] = CNS oxygen toxicity, 6 ATA hyperbaric oxygen exposure; assay type: in vivo, mice; settings: for Survival: 6 ATA oxygen 25 minutes, DDC 400 mg/kg i.p. or LNNA 20 mg/kg i.p.
# Protocol: Oxygen exposures: 7-8 week old mice were exposed to hyperbaric oxygen five at a time in a small-animal chamber (Bethlehem, Pa.). After flushing the chamber with pure oxygen, compression to 50 meters (6 ATA) was performed within 5 minutes. The oxygen concentration in the chamber was monitored continuously with a Servomex oxygen analyzer (model 572, Sybron, Norwood, Mass.) and maintained at ≳99%. The carbon dioxide concentration was analyzed from intermittent samples of chamber gas with an IR detector (IR Industries, Santa Barbara, Calif.) and was not allowed to rise above 0.1%. The chamber temperature was maintained at 25-26° C., but the compression of oxygen in the chamber raised the temperature to 30-32° C. transiently, but an environmental control system restored the normal chamber temperature within 3 minutes. […] The mice were observed continuously for signs of oxygen toxicity from the beginning of the exposure until 4 hours after removal from the chamber. The time to the first generalized convulsion (seizure latency) and the time to death were recorded. These exposure conditions are designed to cause CNS oxygen toxicity without appreciable evidence of pulmonary oxygen toxicity.
# Treatment with diethyldithiocarbamate: One hour prior to exposure to 6 ATA oxygen, mice were given either i.p. injections of either 0.008 cc/g saline or 400 mg/kg diethyldithiocarbamate dissolves in normal saline (0.008 cc/g). The mice were then exposed to 6 ATA oxygen for 25 minutes as described above.
# Treatment with β-mercaptoethanol: One hour prior to exposure to 6 ATA oxygen, mice were given either i.p. injections of 0.008 cc/g saline or 180 mg/kg β-mercaptoethanol (0.008 cc/g). This dose of β-mercaptoethanol was selected because it contains an equal number of reducing thiols as the dose of diethyldithiocarbamate. The mice were then exposed to 6 ATA oxygen for 30 minutes as described above.
# Treatment with N-ω-nitro-L-arginine, an inhibitor of nitric oxide synthase: Ten minutes prior to beginning compression, 0.008 cc/g saline or 20 mg/kg (0.008 cc/g) N-ω-nitro-L-arginine dissolved in sterile water was given i.p to the transgenic and nontransgenic mice. Mice were then exposed at 6 ATA oxygen for 25 or 75 minutes as described above.
# J774 macrophages = assay: Mitochondrial respiration (MTT) in J774 macrophages; assay type: cell-based; settings: IFN alone, 10 U/ml
# Protocol: Cell culture: J774 macrophages were cultured in DMEM medium, supplemented with L-glutamine (3.5 mmol/L) and 10% fetal calf serum. Cells were cultured in 96-well plates (200 μl medium/well) until confluence. To induce the inducible isoform of nitric oxide synthase (iNOS), fresh culture medium containing E. coli LPS (011:B4, 10 μg/ml) alone or in combination with murine γ-interferon (γ-IFN, 10 U/ml) was added in the presence or absence of the NOS inhibitor, the SOD mimetic of the combination of the two compounds for 24 h. Moreover, cells were exposed to the NO donor compounds S-nitroso-N-acetyl-DL-penicillamine (SNAP) (3 mM) and diethylamine:NO NONOate (DNO) (3 mM) for 24 h or to authentic peroxynitrite (1 mM) for 1 h). Nitride/nitrate concentration in the medium and mitochondrial respiration were then measured as described below.
# Measurement of mitochondrial respiration: Cell respiration was assessed by the mitochondrial-dependent reduction of 3-(4,5-dimethylthiazol-2-yl)-2,5-diphenyltetrazolium bromide (MTT) to formazan. Cells in 96-well plates were incubated at 37° C. with MTT (0.2 mg/ml) for 1 hour. Culture medium was removed by aspiration and the cells were solubilized in DMSO (100 μl). The extent of reduction of MTT to formazan within cells was quantitated by the measurement of OD550. All measurements were corrected for the interference of MnTBAP at this wavelength.
molecule,measurement,setting,value
"N[C@H](CCCP(=O)(O)O)C(=O)O [D-APV, reference compound]",LDH release,"rat cortical cells; condition ""pre"", 100 μM D-APV, 100 μM NMDA 15 min.",complete blockade
"CC(=O)N(O)CCCCCNC(=O)CCC(=O)N(O)CCCCCNC(=O)CCC(=O)N(O)CCCCCN [Deferoxamine, deferoxamine]",Edema Index,"Cold-induced brain edema; wild-type mice, 0.51 μmoles/g, 15 minutes prior to cold injury",3.41 ± 0.49
same,less edema formation compared to saline treated controls,Cold-induced brain edema; wild-type mice,43%
"C=C(C)[C@H]1CN[C@H](C(=O)O)[C@H]1CC(=O)O [KA, kainate]",decrease in aconitase activity,aconitase,42%
N=C(N)NCCC[C@H](N)C(=O)O [L-arginine],effect of excess L-arginine on protection by N-ω-nitro-L-arginine,"[1]; 20 mg/kg LNNA plus 50 mg/kg L-arginine, 6 ATA oxygen",could be reversed
"COC(=O)[C@@H](N)CCCNC(=N)N[N+](=O)[O-] [LNAME, N-ω-nitro-L-arginine methyl ester]",Edema Index,"Cold-induced brain edema; EC-SOD transgenic mice, 20 mg/kg 15 minutes prior to cold-induced injury",4.30 ± 0.96
same,Edema Index,"Cold-induced brain edema; wild-type mice, 0.02 mg/g LNAME, with or without 0.05 mg/g L-arginine",3.65 ± 0.51
same,less edema formation compared to saline treated controls,Cold-induced brain edema; wild-type mice,37%
same,NMDA-induced LDH release,rat cortical cells,unchanged
same,NMDA-induced aconitase inactivation,aconitase,unchanged
"C[C@]12N[C@H](Cc3ccccc31)c1ccccc12 [MK801, reference compound]",reduction of LDH release / protective effect,"rat cortical cells; added 15 min. after 15 min. 100 μM NMDA, 200 μM MnTBAP, 10 μM MK801",17%
NC(=NCCC[C@H](N)C(=O)O)N[N+](=O)[O-] [N-ω-nitro-L-arginine],difference in sensitivity between transgenic and nontransgenic mice,"[1]; 20 mg/kg i.p., 6 ATA oxygen 75 minutes",abolished the difference in sensitivity
same,Survival,[1]; nontransgenic mice,100%
same,seizure latency,"[1]; transgenic and nontransgenic mice, 20 mg/kg i.p., 6 ATA oxygen",significantly delayed
same,Survival,[1]; transgenic mice,100%
same,seizure latency,"[1]; wild-type mice, 20 mg/kg i.p., 6 ATA oxygen",13.50 ± 5.6 min
same,mortality,"[1]; wild-type mice, 20 mg/kg i.p., 90 minutes of 6 ATA oxygen",50%
same,mortality,"[1]; wild-type mice, 20 mg/kg i.p., 2 hours of 6 ATA oxygen",100%
same,NMDA-induced LDH release,rat cortical cells,unchanged
same,NMDA-induced aconitase inactivation,aconitase,unchanged
"CN[C@H](CC(=O)O)C(=O)O [NMDA, N-methyl-D-aspartate]",decrease in aconitase activity,aconitase,40%
"C[n+]1ccc(-c2cc[n+](C)cc2)cc1 [PQ^++, methylviologen (paraquat)]",decrease in aconitase activity,aconitase,70%
OCCS [β-mercaptoethanol],protection against CNS oxygen toxicity,"[1]; 180 mg/kg i.p., 6 ATA oxygen 30 minutes",did not protect against CNS oxygen toxicity
B1,suppression of respiration,J774 macrophages,< 15%
